“Also recorded” adds a separate entry of the source. Where two headings read alike, the source gives them in different places.
Experiments:
[1] = Tail-clamp withdrawal assay (MAC of isoflurane) and recovery of righting reflex; format: in vivo, mice; conditions: for time to self-right after the immobilizing dose of isoflurane: L-655,708 or vehicle pretreatment, n=9; for immobilizing dose (MAC value) of isoflurane: tail-clamp, mice pretreated with L-655,708 0.7 mg/kg s.c. (row L-655,708) or vehicle (row isoflurane), n=17
Protocol: The MAC value was calculated as the mean value of these two concentrations.

Elevated plus maze = format: in vivo, mice
Excerpt: Anxiety levels were studied using an elevated plus maze consisting of an acrylic glass apparatus in the shape of a cross (45 cm long×7 cm wide, with a central region of 7 cm×7 cm). Two opposing arms were enclosed with opaque white plastic walls (28 cm high, closed arms), whereas the other two opposing arms were left open (open arms). […] An observer blinded to treatment group recorded the position of each mouse on the maze using Observer software. The time spent in the center and in the open and closed arms were measured over 5 min. In addition, motor activity was quantified to study locomotion.

α5GABAA receptors [2] = target: T1, α5GABAA receptors (Mus musculus, UniProt P22723+Q8BHJ7); conditions: for memory performance of Gabra5−/− mice (in words) / effect of the anesthetic on recognition memory, wild-type mice (in words): 24 h after anesthesia
T1 sequence (Q8BHJ7 32-463 limits assumed): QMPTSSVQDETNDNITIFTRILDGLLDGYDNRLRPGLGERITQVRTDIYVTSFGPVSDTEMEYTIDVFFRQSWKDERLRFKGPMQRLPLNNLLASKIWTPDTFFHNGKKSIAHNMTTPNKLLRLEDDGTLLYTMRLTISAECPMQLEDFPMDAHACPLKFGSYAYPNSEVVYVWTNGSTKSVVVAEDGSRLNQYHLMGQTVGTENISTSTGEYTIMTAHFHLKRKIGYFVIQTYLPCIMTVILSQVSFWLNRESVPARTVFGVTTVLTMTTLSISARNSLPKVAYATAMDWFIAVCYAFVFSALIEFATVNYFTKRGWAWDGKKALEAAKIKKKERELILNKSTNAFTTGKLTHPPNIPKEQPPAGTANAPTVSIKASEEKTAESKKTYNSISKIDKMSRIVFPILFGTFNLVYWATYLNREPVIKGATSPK
T1 sequence (P63080 26-473 partner): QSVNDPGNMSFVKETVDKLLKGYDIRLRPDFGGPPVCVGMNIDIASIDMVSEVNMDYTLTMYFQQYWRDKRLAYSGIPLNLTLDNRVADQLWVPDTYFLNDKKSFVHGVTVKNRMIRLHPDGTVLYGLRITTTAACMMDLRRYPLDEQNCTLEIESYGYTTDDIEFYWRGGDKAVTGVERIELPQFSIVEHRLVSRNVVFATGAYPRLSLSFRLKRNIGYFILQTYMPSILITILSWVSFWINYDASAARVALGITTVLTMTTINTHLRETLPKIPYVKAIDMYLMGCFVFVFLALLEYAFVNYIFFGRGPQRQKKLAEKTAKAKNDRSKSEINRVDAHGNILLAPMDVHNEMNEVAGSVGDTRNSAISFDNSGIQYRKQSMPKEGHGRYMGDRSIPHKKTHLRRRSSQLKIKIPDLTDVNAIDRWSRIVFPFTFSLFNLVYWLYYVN
T1 sequence (P22723 39-474): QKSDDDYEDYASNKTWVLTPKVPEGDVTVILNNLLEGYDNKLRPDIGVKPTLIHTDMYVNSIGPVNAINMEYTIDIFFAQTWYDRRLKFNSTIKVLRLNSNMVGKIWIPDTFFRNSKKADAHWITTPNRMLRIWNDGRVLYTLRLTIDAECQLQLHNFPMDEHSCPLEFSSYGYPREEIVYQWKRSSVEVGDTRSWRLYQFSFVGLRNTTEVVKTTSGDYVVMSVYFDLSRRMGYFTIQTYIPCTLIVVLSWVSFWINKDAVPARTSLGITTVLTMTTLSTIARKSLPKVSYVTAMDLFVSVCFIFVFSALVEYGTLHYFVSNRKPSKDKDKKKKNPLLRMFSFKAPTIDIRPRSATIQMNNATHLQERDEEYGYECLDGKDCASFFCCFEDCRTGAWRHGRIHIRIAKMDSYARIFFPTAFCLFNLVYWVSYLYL

α5GABAA receptors [3] = target: T1, α5GABAA receptors; assay: Fear conditioning (contextual and cued) after isoflurane anesthesia; format: in vivo, C57BL6/J mice; design: from tissue; host or cells: brain of living mice (behavioural tests); conditions: for effect on memory deficit after isoflurane (in words): L-655,708 given before isoflurane; for freezing score to context, short-term memory: tested 30 min after training; for freezing score to auditory tone, short-term memory: tested 90 min after conditioning; for freezing score to auditory tone, long-term memory / freezing score to context, long-term memory: tested 2 days after conditioning
Protocol: To prevent hypothermia during anesthesia, the floor of the chamber was warmed with a heating blanket. […] The mouse was then either returned to its home cage and allowed to recover for 24 h (24-h groups) or taken to a holding cage in an adjacent room (1-h groups). For continuity and to ensure that the experimenter who performed the fear-conditioning studies was blinded to the treatment group, mice that were allowed to recover for 24 h were placed back in a heated for 45 min before the behavioral experiments. FIGS. 1A and 1B summarize the time course of the experimental procedures. In FIG. 1A, each stage of the experimental paradigm is represented by chronological boxes and cartoons. Relative time is indicated below the boxes (t=0, start of fear conditioning training). The duration of each stage is inset at the bottom left. […] Four groups of isoflurane-treated subjects were used (1 h recovery+L-655,708; 1 h recovery+vehicle; 24 h recovery+L-655,708; 24 h recovery+vehicle). Two oxygen-control group was used (1 h recovery+L-655,708; 1 h recovery+vehicle). 10 min prior to fear conditioning, subjects were examined in the elevated plus maze (EPM). Subjects were tested for short-term memory (STM) and long-term memory (LTM) of the context and tone.
Testing of memory function was performed using two fear-conditioning paradigms. These tests study the ability of mice to learn and remember an association between an aversive stimulus (foot shock) and non-aversive or neutral stimuli (environmental context or an auditory cue). […] Each mouse was introduced to the fear conditioning chamber (50 cm wide×15 cm deep×15 cm high, Process Control Fear Conditioning Monitor GmbH 303410, Technical & Scientific Equipment Systems Inc., Chesterfield, Mo.). The chamber was illuminated with an interior overhead light (50 lx) and was equipped with a stainless steel grid floor connected to a constant-current shock generator. Each mouse was allowed to explore the chamber for 3 min before presentation of a pulsating tone (80 dB, 3600 Hz) which persisted for 30 s. The tone was followed immediately by a mild foot shock (0.7 mA for 0.5 s). The mouse was allowed to explore the chamber for a further 30 s after the shock to study post-shock freezing.
Freezing was scored using Observer software (Noldus Information Technology, Wagoningen, The Netherlands), by an experimenter who was blinded to the treatment groups. Before each new training session, the chamber was cleaned with 70% ethanol to mask and eliminate odors from the previous mouse.
Short-term memory for contextual learning was probed 30 min after training by re-exposed the mice to the same fear conditioning chamber for […]. Long-term memory for contextual learning was studied 2 days (48 h) after conditioning by re-exposing the mice to the conditioning chamber. Short-term memory for cued learning was determined 90 min after training by first allowing the mice to explore a modified chamber scented with 5% acetic acid and containing a plastic floor and cardboard walls and then after 3 min, re-presenting the tone (2-Hz pulsating tone, 80 dB, 3600 Hz) for 3 min. Non-specific freezing was measured during the exploration of the novel chamber prior to presenting the tone. Freezing scores to study recall were measured during presentation of the tone. Long-term memory for cued learning was determined by introducing the mice into the modified chamber and presenting the tone 2 days (48 h) after conditioning.

α5GABAARs [4] = target: T2, α5GABAARs (Mus musculus, UniProt P22723+Q8BHJ7); conditions: WT mice, cited from earlier work
T2 sequence (Q8BHJ7 32-463 limits assumed): as the sequence (Q8BHJ7 32-463 limits assumed) above
T2 sequence (P63080 26-473 partner): as the sequence (P63080 26-473 partner) above
T2 sequence (P22723 39-474): as the sequence (P22723 39-474) above

α5GABAARs [5] = target: T2, α5GABAARs; assay: Tonic inhibitory current, whole cell voltage-clamp in cultured hippocampal neurons; format: cell-based, mice; design: endogenous in cells; host or cells: primary embryonic mouse hippocampal neurons, alone or co-cultured with cortical microglia
[6] = Isoflurane concentration in brain tissue (gas chromatography) and in expired gas; conditions: after removal from the chamber
Excerpt: Following a designated recovery time, mice were sacrificed by cervical dislocation. The brains were rapidly removed at room temperature and placed in a gas-tight syringe containing polytetrafluoroethylene beads. The whole brain was immediately crushed with two strokes of the plunger and the syringe was then sealed. […] The methods are similar to that described for measurement of inhaled anesthetics in blood.^26

[7] = 1 h Iso, vehicle (row isoflurane) or L-655,708
[8] = 24 h Iso, vehicle (row isoflurane) or L-655,708
[9] = high-dose experiment: isoflurane + vehicle injection (row isoflurane) or + L-655,708 0.7 mg/kg 30 min before training
[10] = trained 1 h after isoflurane (1 MAC, 1 h), L-655,708 0.7 mg/kg s.c. or vehicle 10 min before isoflurane
[11] = trained 24 h after isoflurane, L-655,708 0.7 mg/kg s.c. or vehicle before isoflurane

CCOC(=O)c1ncn2c1[C@@H]1CCCN1C(=O)c1cc(OC)ccc1-2 [L-655,708]
time to self-right after the immobilizing dose of isoflurane [1]: 151 ± 27 s | effect on MAC of isoflurane (in words) ([1]; mouse, in vivo): did not change the MAC value for isoflurane | immobilizing dose (MAC value) of isoflurane [1]: 1.33±0.02 | total number of visits to the middle area (Elevated plus maze; [7]): 17.3±7.0 | total number of visits to the middle area (Elevated plus maze; 1 h O2): 19.5±8.5 | total number of visits to the middle area (Elevated plus maze; [8]): 13.6±7.1 | memory performance of Gabra5−/− mice (in words) (α5GABAA receptors [2]): did not affect the memory performance of Gabra5−/− mice | discrimination ratio, short-term memory (α5GABAA receptors [2]; Gabra5−/− mice, L-655,708 0.70 mg/kg i.p. 10 min before isoflurane): 0.62±0.05 | discrimination ratio, short-term memory (α5GABAA receptors [2]; Gabra5−/− mice, L-655,708 0.70 mg/kg i.p. 10 min before vehicle gas): 0.64±0.05 | effect on isoflurane-induced recognition memory deficit (in words) (α5GABAA receptors [2]; L-655,708 0.35 mg/kg 24 h after isoflurane, 30 min before training): restored normal memory performance in groups that were exposed to isoflurane; also recorded: fully reversed short-term memory deficits; also recorded: completely reversed the deficit in recognition memory; also recorded: reverses memory deficits when administered 24 h after exposure to the anesthetic isoflurane; also recorded: fully reversed by L-655,708 | effect on isoflurane-induced recognition memory deficit (in words) (α5GABAA receptors [2]; L-655,708 0.7 mg/kg 24 h after isoflurane, 30 min before training): failed to reverse the memory deficit in isoflurane-treated mice | prevention of recognition memory deficit (in words) (α5GABAA receptors [2]; L-655,708 0.7 mg/kg before isoflurane): preferred the novel object | discrimination ratio, short-term memory (α5GABAA receptors [2]; [9]): 0.54±0.05 | discrimination ratio, short-term memory (α5GABAA receptors [2]; isoflurane + L-655,708 0.35 mg/kg i.p. 23.5 h after anesthesia, 30 min before training, n=11): 0.68±0.03 | exploratory behavior during training (in words) (α5GABAA receptors [2]; mouse, in vivo): did not influence the amount of time that mice spent with both objects | effect on memory deficit after isoflurane (in words) (α5GABAA receptors [3]): completely prevented memory deficits; also recorded: completely reversed the short-term memory deficit for contextual learning; also recorded: prevented the short-term memory deficit to the tone in mice trained 1 h after isoflurane; also recorded: had no effect on auditory recall in mice conditioned 24 h after exposure to isoflurane; also recorded: completely reversed by pretreatment with L-655,708; also recorded: did not reverse the long-term deficit in cued fear conditioning; also recorded: The impairment was prevented by pre-emptive treatment with L-655,708 | effect on memory deficit after isoflurane (in words) (α5GABAA receptors [3]; listed as L-655-708): had no effect on freezing in the oxygen-treated mice | freezing score to context, short-term memory (α5GABAA receptors [3]; oxygen-treated mice): 80.1±6.4% | freezing score to context, short-term memory (α5GABAA receptors [3]; [10]): 75.5±8.6% | freezing score to context, short-term memory (α5GABAA receptors [3]; [11]): 81.9±5.6% | freezing score to auditory tone, short-term memory (α5GABAA receptors [3]; trained 1 h after isoflurane): 49.1+8.8% | freezing score to auditory tone, long-term memory (α5GABAA receptors [3]; trained 1 h after isoflurane): 41.7±7.3% | freezing score to context, long-term memory (α5GABAA receptors [3]; trained 1 h after isoflurane): 72.3±4.9% | freezing score to context, long-term memory (α5GABAA receptors [3]; trained 24 h after isoflurane): 75.2±8.3% | trace fear memory, freezing scores (in words) (α5GABAARs [4]; L-655,708 1 mg/kg i.p. 30 minutes prior to training): demonstrated increased freezing scores | contextual fear memory, freezing score (in words) (α5GABAARs [4]; etomidate or etomidate plus L-655,708 30 min prior to training): prevented the etomidate-induced memory deficit | inhibition at 0.02 µM (α5GABAARs [5]; L-655,708 20 nM, n=11, read-out: inhibition of the IL-1β-enhanced tonic current): 66.1% | IL-1β-modulated tonic current (α5GABAARs [5]; L-655,708 20 nM, n=12): 69.2±4.4 % of control | effect on the tonic current (in words) (α5GABAARs [5]; cultured hippocampal neurons): the tonic current is selectively inhibited; also recorded: reverses enhancement of the tonic current by the inhaled anaesthetics isoflurane and desflurane; also recorded: reverses the sevoflurane-induced increase in tonic inhibitory conductance generated by GABAA receptors

FC(F)OC(Cl)C(F)(F)F (stereo not drawn) [isoflurane]
time to self-right after the immobilizing dose of isoflurane [1]: 153 ± 26 s | immobilizing dose (MAC value) of isoflurane [1]: 1.33±0.02 | total number of visits to the middle area (Elevated plus maze; [7]): 19.9±4.6 | total number of visits to the middle area (Elevated plus maze; [8]): 18.1±5.3 | anxiety in the elevated plus maze (in words) (Elevated plus maze; mouse, in vivo): neither isoflurane, nor L-655,708 had any effect on anxiety on their own | effect of the anesthetic on recognition memory, wild-type mice (in words) (α5GABAA receptors [2]): failed to recognize the familiar object and exhibited no preference for the novel object | memory performance of Gabra5−/− mice (in words) (α5GABAA receptors [2]): did not cause significant impairment of memory performance in Gabra5−/− mice | effect of the anesthetic on recognition memory, wild-type mice (in words) (α5GABAA receptors [2]; listed as Isoflurane): demonstrated normal working memory | time spent exploring both objects during training (α5GABAA receptors [2]; 72 h after isoflurane): 46.65 ± 6.57 s | discrimination ratio, short-term memory (α5GABAA receptors [2]; 72 h after isoflurane, n=10): 0.60±0.04 | discrimination ratio, short-term memory (α5GABAA receptors [2]; Gabra5−/− mice, 24 h after isoflurane): 0.62±0.05 | time by which short-term memory deficits resolved (α5GABAA receptors [2]; after isoflurane 1.3% 1 h): ≤ 72 h | discrimination ratio, short-term memory (α5GABAA receptors [2]; [9]): 0.54±0.04 | discrimination ratio, short-term memory (α5GABAA receptors [2]; prevention experiment, wild-type, isoflurane + vehicle injection, n=11): 0.53±0.05 | time spent exploring sample objects during training (α5GABAA receptors [2]; short-term memory experiment, 24 h after isoflurane): 62.3 ± 9.44 s | discrimination ratio, working memory (α5GABAA receptors [2]; tested 1 min after training, 24 h after isoflurane 1.3% 1 h, n=10): 0.67±0.04 | discrimination ratio, short-term memory (α5GABAA receptors [2]; tested 1 h after training, 24 h after isoflurane, vehicle injection, wild-type, n=31): 0.51±0.03 | time spent exploring both sample objects during training (α5GABAA receptors [2]; working memory experiment, 24 h after isoflurane): 49.28 ± 9.60 s | mean freezing score, short-term contextual fear conditioning (α5GABAA receptors [3]; independent cohort of 14 mice, 24 h after isoflurane): 32.8% | freezing score to context, short-term memory (α5GABAA receptors [3]; [10]): 54.6±5.9% | freezing score to context, short-term memory (α5GABAA receptors [3]; [11]): 51.6±8.0% | freezing score to auditory tone, short-term memory (α5GABAA receptors [3]; trained 1 h after isoflurane): 35.7±6.43% | freezing score to auditory tone, short-term memory (α5GABAA receptors [3]; trained 24 h after isoflurane): 49.1+8.8% | freezing score to auditory tone, long-term memory (α5GABAA receptors [3]; trained 1 h after isoflurane): 21.8±23.1% | freezing score to context, long-term memory (α5GABAA receptors [3]; trained 1 h after isoflurane): 36.4±26.9% | freezing score to auditory tone, long-term memory (α5GABAA receptors [3]; trained 24 h after isoflurane): 41.2±31.2% | freezing score to context, long-term memory (α5GABAA receptors [3]; trained 24 h after isoflurane): 48.9±8.6% | time until isoflurane in expired gas is undetectable [6]: ≤ 7 min

From patent publication US9517265B2, “Methods for the prevention and/or treatment of memory impairment” (The Governing Council of the University of Toronto, priority 2010, dated 2016)
